For eleven compounds, IC50 results are on record in US6420558B1, “Aminopiperidine derivates as integrin αvβ3 antagonists” (Meiji Seika Kaisha, Ltd., priority 1998, dated 2002).

For experiment [1], the target named is T1, integrin αvβ3 (vitronectin receptor purified from the human placenta) (Homo sapiens, UniProt P05106+P06756).
T1 construct: a vitronectin receptor (protein content: 118 μg/ml) purified from the human placenta; from tissue; host or cells: human placenta
As to the kind of experiment: αvβ3 binding assay (vitronectin-vitronectin receptor binding assay). The settings on record: vitronectin binding to human placenta vitronectin receptor; read-out: integrin αvβ3 antagonistic activity, IC50 value. The procedure:
Integrin αvβ3 antagonistic activity was measured for the compounds according to the present invention in a vitronectin-vitronectin receptor binding assay system in accordance with the method of Kouns et al. (W. C. Kouns, D. Kirchhofer, P. Hadvary, A. Edenhofer, T. Weller, G. Pfenninger, H. R. Baumgartner, L. K. Jennings and B. Steiner, Blood, 80, 2539-2547 (1992)).
Specifically, a vitronectin receptor (protein content: 118 μg/ml) purified from the human placenta in accordance with the method of Pytela et al. (R. Pytela, M. D. Pierschbacher, S. Argraves, S. Suzuki, and E. Ruoslahti, Method in Enzymology, 144, 475-489 (1987)) was diluted 50 times with TBS (20 mM Tris-HCl, 150 mM NaCl, 1 mM CaCl2, 1 mM MgCl2, pH 7.4), and distributed and coated on wells (50 μl/well) of a plate (Maxisorp, Nunc, 96 well Immuno Plate). The plate was then allowed to stand at 4° C. for 1 day, washed twice with TBS (200 μl/well), and then subjected to blocking with TBS (150 μl/well) containing 1% bovine serum albumin (SIGMA) at 4° C. overnight. After washing twice with TBS (200 μl/well), 50 μl of vitronectin (CALBIOCHEM) adjusted to 0.2 μg/ml by the addition of TBS (TBS-Tween) containing 0.01% Tween-20 was mixed with 50 μl of each test compound adjusted to each concentration in wells, and a reaction was allowed to proceed at room temperature for 4 hr. After the completion of the reaction, the wells were washed five times with TBS-Tween. A solution prepared by diluting anti-vitronectin rabbit antiserum (CHEMICON) 500 times with TBS-Tween was added as a primary antibody in an amount of 50 μl/well, and a reaction was allowed to proceed at room temperature for 1.5 hr. After washing five times with 200 μl/well of TBS-Tween, a peroxidase (POD)-labeled anti-rabbit IgG antibody solution (CAPPEL) diluted 500 times with TBS-Tween was added as a secondary antibody in an amount of 50 μl/well, and a reaction was allowed to proceed at room temperature for 1.5 hr. After washing five times with TBS-Tween (200 μl/well), ABTS (2,2′-azino-bis(3-ethylbenzthiazoline-6-sulfonic acid), SIGMA) was adjusted to 1 mg/ml by the addition of a ten-fold diluted POD-buffer (ZYMED), and added in an amount of 50 μl/well, and a reaction was allowed to proceed for 5 to 10 min. A 0.1 M citric acid buffer (pH 4.3) containing 0.05% NaN3 was added in an amount of 50 μl/well to stop the reaction, followed by the measurement of the absorbance at 415 nm with a microplate reader (MTP 32, Corona Electric) (reference: 675 nm). The total binding was defined as the absorbance after a reaction using 50 μl of TBS-Tween instead of the test compound, and the non-specific binding (100% inhibition) was defined as the absorbance after a reaction using 50 μl of TBS-Tween containing 2×10^−3 M RGDS. The inhibition was calculated by the following equation: [formula]
IC50 was determined from a primary regression line of the logarithm of each concentration of the test compound and the logarithm of (100−inhibition)/inhibition.

Another experiment deals with GP IIb/IIIa (Homo sapiens, UniProt P05106+P08514). As to the kind of experiment: GP IIb/IIIa antagonistic activity (method of Pharmacological Test 2 in WO 94/21599). It counts as binding. Here is the method: GP IIb/IIIa Antagonistic Activity and Human Platelet Aggregation Inhibitory Activity
GP IIb/IIIa antagonistic activity was measured for the compounds according to the present invention. The measurement of the GP IIb/IIIa antagonistic activity was carried out according to the method described in Pharmacological Test 2 in WO 94/21599.

Experiment [2] deals with human vascular smooth muscle cells adhering to immobilized human vitronectin. As to the kind of experiment: Inhibitory activity against adhesion of human vascular smooth muscle cells to vitronectin. Format: cell-based. The note with it: 1.5 h; human vitronectin-coated plate, 90 min. Here is the method: Inhibitory Activity Against Adhesion of Human Vascular Smooth Muscle Cells to Vitronectin
The adhesion of human vascular smooth muscle cells =+to immobilized human vitronectin was measured in accordance with the method of Liaw et al. (Liaw L, Almeida M, Hart C E, Schwartz S M, and Giachelli C M, Circulation Research, 74 (2), 214-224 (1994)).
A Dulbecco's phosphate buffer (Dulbecco's PBS(−), Nissui Pharmaceutical Co., Ltd.) solution of human plasma-derived vitronectin (CALBIOCHEM) adjusted to a concentration of 4 μg/ml was first added to wells (50 μl/well) of a microplate (Maxisorp, Nunc), and a reaction for immobilization was allowed to proceed at 4° C. overnight. After washing twice with 150 μl of Dulbecco's phosphate buffer, a Dulbecco's phosphate buffer containing 10 mg/ml of bovine serum albumin (SIGMA) was added, followed by blocking at 37° C. for one hr. The assay plate was washed twice with 150 μl of Dulbecco's phosphate buffer.
Separately, human vascular smooth muscle cells cultivated at 37° C. under 5% carbon dioxide in a medium for vascular smooth muscle cells (Clonetics) were separated using a Dulbecco's phosphate buffer containing trypsin-EDTA (GIBCO BRL), washed with Dulbecco's phosphate buffer, and then suspended in a Dulbecco's modified Eagle's basal medium (Nissui Pharmaceutical Co., Ltd.) containing 0.1% bovine serum albumin to a concentration of 5×10^5/ml.
Next, 50 μl of a Dulbecco's modified Eagle's basal medium containing 10 mg/ml of bovine serum albumin with a medicament added thereto was added to the wells of the human vitronectin-coated assay microplate, followed by pre-cultivation under 5% carbon dioxide at 37° C. for 10 min. Thereafter, 50 μl of the medium with human vascular smooth muscle cells suspended therein was added thereto, and the plate was thoroughly stirred. A reaction was allowed to proceed under 5% carbon dioxide at 37° C. for 90 min. The reaction solution containing non-adherent cells were then removed, followed by washing three times with Dulbecco's phosphate buffer. For the adhered cells, 100 μl of a Dulbecco's phosphate buffer containing 4% paraformaldehyde (Wako Pure Chemical Industries, Ltd.) was added, and immobilization was allowed to proceed at room temperature for 10 min. Next, 100 μl of a Dulbecco's phosphate buffer containing 0.5% Toluidine Blue (Croma) and 4% paraformaldehyde was added, and staining was allowed to proceed at room temperature for 5 min, followed by thorough washing with distilled water. The inside of the wells was then air-dried, and a 1% aqueous sodium dodecylsulfate solution was then added to perform cytolysis. The absorbance of the microplate thus obtained was measured at 595 nm. […] The inhibition was calculated by the following equation. IC50 was determined from a primary regression line of the logarithm of each concentration of the test compound and the logarithm of (100−inhibition)/inhibition. [formula]

Chain of GP IIb/IIIa (P08514 32-887 limits assumed): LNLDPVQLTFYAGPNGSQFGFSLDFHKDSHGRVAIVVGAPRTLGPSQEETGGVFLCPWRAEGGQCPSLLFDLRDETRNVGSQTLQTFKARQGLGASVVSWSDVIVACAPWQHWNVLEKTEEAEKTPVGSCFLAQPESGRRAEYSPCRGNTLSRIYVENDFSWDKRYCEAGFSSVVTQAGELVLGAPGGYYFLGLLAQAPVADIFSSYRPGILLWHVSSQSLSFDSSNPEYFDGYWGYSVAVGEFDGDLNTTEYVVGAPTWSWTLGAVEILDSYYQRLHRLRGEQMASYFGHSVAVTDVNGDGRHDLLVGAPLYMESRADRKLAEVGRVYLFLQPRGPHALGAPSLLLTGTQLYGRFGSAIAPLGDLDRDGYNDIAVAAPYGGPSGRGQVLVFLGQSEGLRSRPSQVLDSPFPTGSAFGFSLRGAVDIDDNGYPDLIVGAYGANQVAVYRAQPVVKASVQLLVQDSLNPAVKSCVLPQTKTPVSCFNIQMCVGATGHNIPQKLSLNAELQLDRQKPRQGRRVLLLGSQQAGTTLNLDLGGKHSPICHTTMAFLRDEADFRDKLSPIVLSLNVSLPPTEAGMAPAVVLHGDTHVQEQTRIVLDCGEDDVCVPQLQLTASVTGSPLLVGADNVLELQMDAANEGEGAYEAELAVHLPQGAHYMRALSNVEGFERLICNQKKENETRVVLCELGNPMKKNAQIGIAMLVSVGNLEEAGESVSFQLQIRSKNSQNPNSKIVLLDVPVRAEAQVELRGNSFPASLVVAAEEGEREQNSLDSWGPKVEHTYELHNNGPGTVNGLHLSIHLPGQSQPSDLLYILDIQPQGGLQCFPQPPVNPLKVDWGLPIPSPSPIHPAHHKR
Chain of GP IIb/IIIa (P08514 891-1039 limits assumed): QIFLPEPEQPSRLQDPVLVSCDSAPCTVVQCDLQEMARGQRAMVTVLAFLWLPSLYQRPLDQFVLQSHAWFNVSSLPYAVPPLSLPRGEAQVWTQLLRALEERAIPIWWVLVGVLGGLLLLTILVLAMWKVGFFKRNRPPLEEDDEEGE
Chain of GP IIb/IIIa (P05106 27-788): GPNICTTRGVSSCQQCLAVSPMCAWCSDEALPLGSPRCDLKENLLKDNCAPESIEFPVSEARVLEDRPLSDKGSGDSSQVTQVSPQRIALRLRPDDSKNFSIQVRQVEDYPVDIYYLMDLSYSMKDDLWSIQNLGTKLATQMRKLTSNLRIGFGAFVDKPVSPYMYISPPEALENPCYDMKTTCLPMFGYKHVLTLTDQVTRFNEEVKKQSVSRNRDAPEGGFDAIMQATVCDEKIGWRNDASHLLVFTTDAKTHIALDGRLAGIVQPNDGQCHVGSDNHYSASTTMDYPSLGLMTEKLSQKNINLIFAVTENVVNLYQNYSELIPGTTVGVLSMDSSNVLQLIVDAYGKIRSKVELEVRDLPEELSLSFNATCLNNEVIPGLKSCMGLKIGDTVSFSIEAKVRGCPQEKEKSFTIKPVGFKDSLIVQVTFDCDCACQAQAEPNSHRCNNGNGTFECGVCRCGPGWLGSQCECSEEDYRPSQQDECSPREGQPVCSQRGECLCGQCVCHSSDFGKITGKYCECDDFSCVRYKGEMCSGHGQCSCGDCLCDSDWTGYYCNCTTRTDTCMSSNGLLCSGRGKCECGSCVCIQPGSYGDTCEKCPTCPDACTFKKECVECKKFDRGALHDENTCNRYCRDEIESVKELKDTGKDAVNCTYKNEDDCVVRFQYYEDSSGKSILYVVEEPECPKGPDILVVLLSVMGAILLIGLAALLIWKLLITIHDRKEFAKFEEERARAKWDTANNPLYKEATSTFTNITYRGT
T1 sequence (P06756 31-889 limits assumed): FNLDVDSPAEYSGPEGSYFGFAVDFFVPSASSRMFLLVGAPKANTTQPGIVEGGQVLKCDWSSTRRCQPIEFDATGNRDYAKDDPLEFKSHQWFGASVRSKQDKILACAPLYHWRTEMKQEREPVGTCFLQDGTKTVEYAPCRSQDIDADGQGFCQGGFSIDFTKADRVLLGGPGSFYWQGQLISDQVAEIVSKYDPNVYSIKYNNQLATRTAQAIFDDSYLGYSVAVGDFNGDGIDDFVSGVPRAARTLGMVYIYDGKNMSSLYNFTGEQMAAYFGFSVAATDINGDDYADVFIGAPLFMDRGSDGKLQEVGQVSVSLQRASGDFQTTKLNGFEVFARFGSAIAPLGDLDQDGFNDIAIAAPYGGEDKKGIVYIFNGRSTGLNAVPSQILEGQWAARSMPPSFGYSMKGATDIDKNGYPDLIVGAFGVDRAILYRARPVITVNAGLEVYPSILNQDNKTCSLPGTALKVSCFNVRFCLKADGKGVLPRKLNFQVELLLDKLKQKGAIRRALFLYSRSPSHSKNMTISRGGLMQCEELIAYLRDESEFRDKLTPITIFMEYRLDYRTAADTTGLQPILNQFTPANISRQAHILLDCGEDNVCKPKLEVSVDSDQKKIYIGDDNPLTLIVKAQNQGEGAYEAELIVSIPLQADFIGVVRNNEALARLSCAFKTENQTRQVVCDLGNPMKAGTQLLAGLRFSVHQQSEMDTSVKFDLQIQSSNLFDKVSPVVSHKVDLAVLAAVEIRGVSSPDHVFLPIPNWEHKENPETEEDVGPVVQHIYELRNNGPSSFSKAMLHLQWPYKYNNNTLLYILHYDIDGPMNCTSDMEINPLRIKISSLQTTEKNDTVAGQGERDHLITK
T1 sequence (P06756 891-1048 limits assumed): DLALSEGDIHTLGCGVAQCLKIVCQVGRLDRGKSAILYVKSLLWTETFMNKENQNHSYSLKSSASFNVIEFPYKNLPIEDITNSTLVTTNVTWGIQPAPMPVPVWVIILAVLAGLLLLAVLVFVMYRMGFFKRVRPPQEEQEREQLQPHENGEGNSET
T1 sequence (P05106 27-788): as the sequence (P05106 27-788) above

One may read the IC50 as the concentration that inhibits the measured activity by half. Regarding `Cc1cc(C)c(S(=O)(=O)N[C@@H](CNC(=O)c2ccc(N3CCC(Nc4nc5ccccc5[nH]4)CC3)cc2)C(=O)O)c(C)c1` [Example 31, 3-[4-{4-(1H-Benzimidazol-2-ylamino)piperidin-1-yl}benzoylamino]-(2S)-{(2,4,6-trimethylbenzenesulfonyl)amino}propionic acid], the IC50 (in experiment [1]; at GP IIb/IIIa) was at most 1 nM in each case.
Turning to `O=C(NC[C@H](NS(=O)(=O)c1ccc(F)cc1)C(=O)O)c1ccc(N2CCC(Nc3nc4ccccc4[nH]3)CC2)cc1` [Example 33, 3-[4-{4-(1H-Benzimidazol-2-ylamino)piperidin-1-yl}benzoylamino]-(2S)-{(4-fluoro-benzenesulfonyl)amino}propionic acid], the IC50 (in experiment [1]; at GP IIb/IIIa) was at most 1 nM in each case.
Regarding `O=C(NC[C@H](NS(=O)(=O)c1ccc([N+](=O)[O-])cc1)C(=O)O)c1ccc(N2CCC(Nc3nc4ccccc4[nH]3)CC2)cc1` [Example 35, 3-[4-{4-(1H-Benzimidazol-2-ylamino)piperidin-1-yl}benzoylamino]-(2S)-{(4-nitro-benzenesulfonyl)amino}propionic acid], the IC50 in experiment [1] was at most 1 nM; on GP IIb/IIIa it was at most 1 nM; in experiment [2], at most 70 nM.
`Nc1ccc(S(=O)(=O)N[C@@H](CNC(=O)c2ccc(N3CCC(Nc4nc5ccccc5[nH]4)CC3)cc2)C(=O)O)cc1` [Example 36, (2S)-(4-Aminobenzenesulfonyl)amino-3-[4-{4-(1H-benzimidazol-2-ylamino)piperidin-1-yl}benzoylamino]-propionic acid]: the IC50 (in experiment [1]; against GP IIb/IIIa) was at most 1 nM each time.
For the compound `O=C(NC[C@H](NS(=O)(=O)c1ccccc1)C(=O)O)c1ccc(N2CCC(Nc3nc4ncccc4[nH]3)CC2)cc1` [Example 38, (2S)-Benzenesulfonylamino-3-[4-[4-{(1H-imidazo[4,5-b]pyridin-2-yl)amino}piperidin-1-yl]benzoyl-amino]propionic acid], the IC50 (in experiment [1]; on GP IIb/IIIa) was at most 1 nM in each case.
For `O=C(NC[C@H](NS(=O)(=O)c1ccccc1)C(=O)O)c1ccc(N2CCC(NC3=NCCCN3)CC2)c(F)c1F` [Example 57, (2S)-Benzenesulfonylamino-3-[2,3-difluoro-4-{4-(1,4,5,6-tetrahydropyrimidin-2-ylamino)piperidin-1yl}benzoylamino]propionic acid], the figures for the IC50 (in experiment [1]; on GP IIb/IIIa; in experiment [2]) were at most 1 nM, at most 1 nM and at most 70 nM, respectively.
Consider `COc1ccc(S(=O)(=O)N[C@@H](CNC(=O)c2ccc(N3CCC(NC4=NCCCN4)CC3)c(F)c2)C(=O)O)cc1` [Example 73, 3-[3-Fluoro-4-{4-(1,4,5,6-tetrahydropyrimidin-2-ylamino)piperidin-1-yl}benzoyl-amino]-(2S)-{(4-methoxybenzenesulfonyl)amino}propionic acid], for which the IC50 (in experiment [1]; against GP IIb/IIIa) was at most 1 nM throughout.
As for `O=C(NC[C@H](NS(=O)(=O)c1ccc(O)cc1)C(=O)O)c1ccc(N2CCC(NC3=NCCCN3)CC2)c(F)c1` [Example 75, 3-[3-Fluoro-4-{4-(1,4,5,6-tetrahydropyrimidin-2-ylamino)piperidin-1-yl}benzoyl-amino]-(2S)-{(4-hydroxybenzenesulfonyl)amino}propionic acid], the concentration for half-maximal inhibition (IC50) in experiment [1] is at most 1 nM; against GP IIb/IIIa, at most 1 nM; in experiment [2], at most 70 nM.
Regarding `O=C(O)c1ccc(S(=O)(=O)N[C@@H](CNC(=O)c2ccc(N3CCC(N=C4NCCCN4)CC3)c(F)c2)C(=O)O)cc1` [Example 78, (2S)-(4-Carboxybenzenesulfonyl)amino-3-[3-fluoro-4-{4-(1.4.5.6-tetrahydropyrimidin-2-ylamino)-piperidin-1-yl}benzoylamino]propionic acid], the IC50 (in experiment [1]; against GP IIb/IIIa) was at most 1 nM in each case.
`COc1cc(C(=O)NC[C@H](NS(=O)(=O)c2ccccc2)C(=O)O)ccc1N1CCC(NC2=NCCCN2)CC1` [Example 93, (2S)-Benzenesulfonylamino-3-[3-methoxy-4-{4-(1,4,5,6tetrahydropyrimidin-2-ylamino)piperidin-1-yl}-benzoylamino]propionic acid]: the values for the IC50 (in experiment [1]; against GP IIb/IIIa; in experiment [2]) were at most 1 nM, at most 1 nM and at most 70 nM, respectively.
With `O=C(NC[C@H](NS(=O)(=O)c1ccccc1)C(=O)O)c1ccc(N2CCC(N=C3NCCCN3)CC2)c(O)c1` [Example 95, (2S)-Benzenesulfonylamino-3-[3-hydroxy-4-{4-(1,4,5,6tetrahydropyrimidin-2-ylamino)piperidin-1-yl}-benzoylamino]propionic acid], the half-inhibitory concentration (IC50) (in experiment [1]; against GP IIb/IIIa) was at most 1 nM each time.
